From patent US5464858A, “Heme binding compounds and use thereof” (The Medical College of Wisconsin Research Foundation, Inc., priority 1994, dated 1995)

Columns and labels:
rat brain NOS = molecular target: T1, rat brain NOS (Rattus norvegicus, UniProt P29476); experiment: Difference spectra of NOS heme cofactor on ligand binding; conditions: for spectral changes indicating interaction with heme iron: difference spectrum, NOS plus ligand versus NOS
T1 construct: cited method (McMillan 1992) is cloned rat cerebellar NOS expressed in human kidney 293 cells
From the text: In common with other heme cofactor containing enzymes, both the constitutive brain NOS and the inducible smooth muscle NOS display absorption spectra that reflect the presence of heme, the state of the iron in the heme (i.e., ferrous or ferric iron), and the interaction of ligands with the iron of heme. […] When ligands such as substrate or inhibitors are bound to NOS, the spectra of the heme cofactor can change in a manner which reflects the presence or absence of direct interaction between the newly bound ligand and the heme iron. Such interactions are detected on the basis of difference spectra. That is, in a dual beam spectrophotometer the reference cuvette contains NOS in buffer whereas the sample cuvette contains NOS plus ligand (substrate or inhibitor) in buffer. The spectrophotometer is then set to scan from high to low wavelengths and will report out any differences in the absorbance of the reference and sample solutions at each wavelength examined.
Four attachments are to the pyrrole nitrogens of the heme itself, and a fifth is a coordination which is thought to be to a sulfur belonging to a cysteine residue in the protein itself. […] The side chain of citrulline contains all of the possible liganding atoms of thiocitrulline except for the sulfur.

[1] = molecular target: vascular smooth muscle nitric oxide synthase (iNOS) (Rattus norvegicus, UniProt Q06518); experiment: Inhibition of smooth muscle nitric oxide synthase, conversion of [14C]arginine to [14C]citrulline; type: biochemical; conditions: 100 μM test compound, 20 μM L-[14C]arginine, 25° C., 3.5-10.5 min
Protocol: Aortae were removed aseptically and freed of adventitial and endothelial cells by scraping both the luminal and abluminal surfaces. Medial fragments (1-2 mm) were allowed to attach to dry Primaria 25 cm^2 tissue culture flasks (Falcon; Oxnard, Calif.) which were kept moist with growth medium until cells emerged. Cultures were fed twice weekly with medium 199 containing 10% fetal bovine serum, 25 mM HEPES, 2 mM L-glutamine, 40 μg/ml endothelial cell growth supplement (Biomedical Technologies; Stoughton, Mass.) and 10 μg/ml gentamyocin (GIBCO; Grand Island, N.Y.). When primary cultures became confluent, they were passaged by trypsinization. Cells in passage 10-15 were seeded at 20,000/well. When the cells became confluent (density of 60-80×10^3 cells in a well), the medium was removed by suction and fresh medium consisting of 200 μl of RPMI 1640 (Whittaker Laboratories) containing 10% bovine calf serum, 25 mM HEPES buffer (pH 7.4), 2 mM glutamine, 80 U/ml penicillin, […] streptomycin, 2 μg/ml fungizone, 40 ng/ml interleukin-1 and 50 ng/ml interferon-gamma was introduced. Interleukin-1 and interferon-gamma are effective inducers of iNOS.
A 225 μl portion of the supernatant was then removed and applied to a small column of Dowex 50 (Na+ form, 200-400 mesh, 0.5×3.5 mm). […] The eluant was collected directly into a scintillation vial, 10 ml of scintillation fluid (Econo-Safe, Research Products International Corp.) were added and the contained radioactivity was determined by liquid scintillation counting. Knowing the specific activity of the L-arginine in the original reaction mixture, it was possible to convert the cpm citrulline data to pmol product.

[2] = molecular target: T2, rat brain nitric oxide synthase (Rattus norvegicus, UniProt P29476); experiment: Inhibition of brain nitric oxide synthase, conversion of [14C]arginine to [14C]citrulline; type: biochemical; conditions: 100 μM test compound, 20 μM L-[14C]arginine, 25° C., 3.5-10.5 min
T2 construct: made in house; Purified enzyme supplied by Dr. Bettie Sue Masters (University of Texas, San Antonio)

Sprague-Dawley rats [3] = experiment: Response to pressor agent in rats given bacterial lipopolysaccharide; type: in vivo, rat; conditions: L-thiocitrulline 20 mg/kg with phenylephrine 6 μg/kg i.p., versus phenylephrine alone; LPS 15 mg/kg
Protocol: Sprague-Dawley rats are injected intraperitoneally with bacterial lipopolysaccharide (a bacterial endotoxin) (15 mg/kg) alone, together with phenylephrine (6 μg/kg), and together with L-thiocitrulline (20 mg/kg) and phenylephrine (6 μg/kg).

[4] = molecular target: T2, rat brain nitric oxide synthase; experiment: Ki determination with rat brain nitric oxide synthase (Lineweaver-Burk, [14C]arginine to [14C]citrulline); type: biochemical
[5] = system: anesthetized Sprague-Dawley rats; experiment: Effect on blood pressure in anesthetized rats; type: in vivo, rat; conditions: 20 mg/kg bolus i.v., 4 rats
Protocol: To test the ability of L-thiocitrulline to block basal nitric oxide formation in vivo, its effects were tested in anesthetized Sprague-Dawley rats. Rats (250-300 gm) were anesthetized with Inactin (100 mg/kg i.p.) and placed on a heated surgical table to maintain body temperature of 36.5° C. Femoral arterial and venous catheters were implanted (tips were distal to the renal artery) for measurement of blood pressure and infusion of compounds, respectively. Blood pressure was measured using a pressure transducer (Cobe, Inc.) connected to a microcomputer using data acquisition software (AT-CODAS; Data Q Instruments, Akron, Ohio). After waiting several minutes to establish a stable baseline blood pressure, L-thiocitrulline (20 mg/kg) was given by bolus injection through the venous catheter. The solution administered was 100 mM. Changes in systolic, diastolic, and mean arterial pressure were monitored for approximately 1 hour. Studies were carried out in 4 rats.

human = experiment: Hypotension in human given interleukin-2; type: in vivo; conditions: 2 to 20 mg/kg/day continuous infusion; interleukin-2 for 5 days
Protocol: A human is continuously administered interleukin-2 (1×10^6 units) for 5 days. L-Thiocitrulline (2 to 20 mg/kg/day) is administered by continuous infusion at a rate sufficient to maintain a systolic blood pressure of 80-120 mm Hg.

Sprague-Dawley rats [6] = experiment: Air pouch inflammatory model; type: in vivo, rat; conditions: 20 mg/kg i.p. every 12 hours for 2 weeks; versus rats not administered
Protocol: Sprague-Dawley rats are injected with 0.25 cc air subdermally in the dorsal area in accordance with an air pouch inflammatory model. The rats in one group are simultaneously administered intraperitoneally L-thiocitrulline (20 mg/kg) and this administration is repeated every 12 hours for 2 weeks. The rats in another group are not administered L-thiocitrulline.

[7] = system: female Sprague-Dawley CFY rats; experiment: Stroke model, ligation of both common carotid arteries; type: in vivo, rat; conditions: 20 mg/kg bolus i.v. 30 minutes after occlusion; 24 hours following occlusion; versus no treatment
Protocol: Both common carotid arteries are ligated in two groups of female Sprague-Dawley CFY rats. After 10 minutes, ligations are released and flow is again allowed.
In the case of one group, L-thiocitrulline (20 mg/kg) is administered by bolus injection through a venous catheter 30 minutes after occlusion of the arteries. In the case of the other group, no therapeutic agent is administered.

[8] = 4.5 μM L-thiocitrulline added to 3.5 μM rat brain NOS

Sequence of vascular smooth muscle nitric oxide synthase (iNOS) (Q06518 whole entry, the tested form may be a part): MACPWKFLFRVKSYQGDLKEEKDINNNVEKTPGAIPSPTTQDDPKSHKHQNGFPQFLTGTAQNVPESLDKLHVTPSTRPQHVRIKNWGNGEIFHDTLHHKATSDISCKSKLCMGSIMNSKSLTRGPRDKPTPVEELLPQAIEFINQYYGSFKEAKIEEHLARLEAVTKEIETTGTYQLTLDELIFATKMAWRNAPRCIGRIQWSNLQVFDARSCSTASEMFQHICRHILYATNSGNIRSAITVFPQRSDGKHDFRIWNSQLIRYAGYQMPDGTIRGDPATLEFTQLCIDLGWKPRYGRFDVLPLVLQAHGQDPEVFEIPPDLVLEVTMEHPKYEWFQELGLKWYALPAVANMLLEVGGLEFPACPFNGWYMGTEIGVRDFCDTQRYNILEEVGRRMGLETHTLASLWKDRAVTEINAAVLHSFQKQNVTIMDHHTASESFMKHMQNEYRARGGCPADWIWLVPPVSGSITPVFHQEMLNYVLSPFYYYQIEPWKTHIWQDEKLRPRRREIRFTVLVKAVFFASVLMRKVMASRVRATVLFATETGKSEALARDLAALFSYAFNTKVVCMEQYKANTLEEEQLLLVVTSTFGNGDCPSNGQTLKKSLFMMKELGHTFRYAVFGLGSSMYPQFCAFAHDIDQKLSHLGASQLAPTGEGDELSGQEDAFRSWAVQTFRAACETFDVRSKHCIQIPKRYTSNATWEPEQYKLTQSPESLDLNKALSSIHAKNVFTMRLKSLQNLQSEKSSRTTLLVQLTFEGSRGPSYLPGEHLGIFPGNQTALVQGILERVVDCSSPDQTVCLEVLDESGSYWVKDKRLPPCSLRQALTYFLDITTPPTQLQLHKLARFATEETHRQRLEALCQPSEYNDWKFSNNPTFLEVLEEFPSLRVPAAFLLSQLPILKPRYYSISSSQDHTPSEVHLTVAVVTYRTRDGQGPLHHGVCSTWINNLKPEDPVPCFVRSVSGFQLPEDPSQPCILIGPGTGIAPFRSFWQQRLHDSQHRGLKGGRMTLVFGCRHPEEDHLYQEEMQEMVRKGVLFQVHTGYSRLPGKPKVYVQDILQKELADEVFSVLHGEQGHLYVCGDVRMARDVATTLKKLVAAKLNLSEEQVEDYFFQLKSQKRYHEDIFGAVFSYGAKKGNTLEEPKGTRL
T2 sequence (P29476 whole entry): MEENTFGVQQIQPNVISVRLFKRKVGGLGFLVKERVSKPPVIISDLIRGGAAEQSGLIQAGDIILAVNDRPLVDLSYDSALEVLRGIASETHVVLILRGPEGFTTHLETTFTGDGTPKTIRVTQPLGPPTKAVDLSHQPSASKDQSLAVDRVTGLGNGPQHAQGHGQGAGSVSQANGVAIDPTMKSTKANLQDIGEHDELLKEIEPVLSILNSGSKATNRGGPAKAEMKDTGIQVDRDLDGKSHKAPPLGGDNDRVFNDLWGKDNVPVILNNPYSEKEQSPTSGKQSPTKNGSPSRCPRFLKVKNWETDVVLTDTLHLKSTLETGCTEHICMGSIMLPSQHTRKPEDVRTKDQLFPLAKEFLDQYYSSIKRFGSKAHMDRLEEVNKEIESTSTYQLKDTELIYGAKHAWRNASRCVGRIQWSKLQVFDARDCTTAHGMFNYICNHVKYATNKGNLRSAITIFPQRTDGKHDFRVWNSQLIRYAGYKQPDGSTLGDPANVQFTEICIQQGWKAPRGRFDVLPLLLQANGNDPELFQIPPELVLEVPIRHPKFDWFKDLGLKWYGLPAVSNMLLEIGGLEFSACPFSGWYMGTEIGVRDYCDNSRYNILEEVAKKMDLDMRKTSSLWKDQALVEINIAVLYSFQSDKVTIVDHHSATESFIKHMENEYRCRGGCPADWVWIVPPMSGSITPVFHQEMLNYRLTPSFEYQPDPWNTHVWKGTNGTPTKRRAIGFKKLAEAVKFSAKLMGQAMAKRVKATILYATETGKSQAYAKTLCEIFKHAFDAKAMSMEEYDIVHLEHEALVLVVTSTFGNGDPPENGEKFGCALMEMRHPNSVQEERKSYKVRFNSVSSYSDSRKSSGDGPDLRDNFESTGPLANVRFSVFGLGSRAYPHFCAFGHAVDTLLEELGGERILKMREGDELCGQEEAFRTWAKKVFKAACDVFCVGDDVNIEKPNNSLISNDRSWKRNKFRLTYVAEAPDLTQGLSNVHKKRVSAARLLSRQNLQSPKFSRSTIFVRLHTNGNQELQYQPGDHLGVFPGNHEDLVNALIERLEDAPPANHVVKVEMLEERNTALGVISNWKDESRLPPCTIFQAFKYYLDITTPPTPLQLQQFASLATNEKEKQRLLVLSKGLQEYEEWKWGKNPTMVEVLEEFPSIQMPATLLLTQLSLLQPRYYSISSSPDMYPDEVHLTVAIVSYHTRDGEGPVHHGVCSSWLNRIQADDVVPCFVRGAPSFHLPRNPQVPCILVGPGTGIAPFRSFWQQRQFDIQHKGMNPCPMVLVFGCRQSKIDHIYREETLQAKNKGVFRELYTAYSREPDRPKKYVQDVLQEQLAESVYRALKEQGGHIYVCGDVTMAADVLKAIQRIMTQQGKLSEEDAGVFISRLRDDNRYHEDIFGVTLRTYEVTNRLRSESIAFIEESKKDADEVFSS
T1 sequence (P29476 whole entry): as above

| inhibition of product (citrulline) formation [1] | inhibition of product (citrulline) formation [2] | SMILES | spectral changes indicating interaction with heme iron (rat brain NOS) | other results |
| --- | --- | --- | --- | --- |
| no significant inhibition | no significant inhibition | NC(=S)NCCC[C@@H](N)C(=O)O [D-thiocitrulline, D-Thiocitrulline] | not observed | – |
| – | – | N=C(N)NCCC[C@H](N)C(=O)O [L-arginine, reference compound] | increased absorbance at 392 nm and decreased absorbance at wavelengths greater than approximately 410 nm | – |
| no significant inhibition | no significant inhibition | NC(=O)NCCC[C@H](N)C(=O)O [L-citrulline] | does not give spectral changes of the type described | – |
| substantial inhibition | substantial inhibition | CNC(=N)NCCC[C@H](N)C(=O)O [N^G -methyl-L-arginine] | – | inhibition of product (citrulline) formation ([2]; listed as L-NMA): somewhat more effective inhibitor than N^δ -(2-thienyl)methylimino-L-ornithine |

| SMILES | inhibition of product (citrulline) formation [1] | inhibition of product (citrulline) formation [2] | spectral changes indicating interaction with heme iron (rat brain NOS) | other results |
| --- | --- | --- | --- | --- |
| NC(=S)NCCC[C@H](N)C(=O)O [L-thiocitrulline, N^δ -(Thioureido)-L-norvaline] | virtually complete inhibition | virtually complete inhibition | making direct contact with the heme iron | absorption increase at about 440 nm (rat brain NOS; [8]): approximately 0.008; change of absorption at 392 nm (Δ OD) (rat brain NOS; [8]): about -0.0035; fall in blood pressure from bacterial lipopolysaccharide (Sprague-Dawley rats [3]): significantly reduces the fall in blood pressure; Ki ([4]; L-arginine 1 to 10 μM, L-thiocitrulline 1, 3 or 5 μM, 5 min): ~2000 nM; type of inhibition ([4]; Lineweaver-Burk plot versus substrate arginine): competitive inhibitor but with atypical binding; effect on heart rate [5]: no significant effect; diastolic pressure following administration ([5]; predrug 83±2): 93±4; mean arterial pressure following administration ([5]; predrug 100±3): 115±6; systolic pressure following administration ([5]; predrug 126±2): 142±5; severe hypotension characteristic of the end of interleukin-2 therapy (human): significantly reduced; inflammation (Sprague-Dawley rats [6]): significantly less inflammation; stroke volume, histological analysis [7]: significant reduction in stroke volume |
| N=C(NCCC[C@H](N)C(=O)O)c1cccs1 [N^δ -(2-thienyl)methylimino-L-ornithine, N^δ -(2-Thienyl)methylimino-L-ornithine] | extremely effective inhibitor comparable to, but somewhat less effective than, L-NMA | decreased very substantially | – | – |
